Results on 15 compounds are retold here after PMC9260921, “Design and Synthesis of Carbothioamide/Carboxamide-Based Pyrazoline Analogs as Potential Anticancer Agents: Apoptosis, Molecular Docking, ADME Assay, and DNA Binding Studies” (ACS Omega, 2022).

Converted amounts (≈) assume the structure as drawn.

In experiment [1] the test system is human primary normal lung cells (HFL-1). Kind of experiment: MTT cytotoxicity assay, HFL-1. It counts as cell-based. The note with it: HFL1, 24 h treatment. Here is the method: (§1) The American type culture collection (ATCC, USA) provided human lung cancer cell line (A549), cervical cancer cell line (HeLa), and human primary normal lung cells (HFL-1) for this investigation. In a water-jacketed cell culture incubator, all of these cell types were cultured according to conventional culture conditions at 37 °C with 5% CO2. These cells were cultured in appropriate cell culture media. A549 cells were grown in DMEM media with 2 mM glutamine, HeLa cells were grown in Eagle’s minimum essential medium (EMEM) as recommended, whereas HFL-1 cells were also grown in F-12K. Fetal bovine serum 10% (FBS) was added to the entire medium. At a rate of 8000 cells were seeded in triplicate in a single 96-well plate for the MTT technique of cell death investigation. […] After the treatment period was finished, the media was removed, and each well was gently washed three times with PBS to clear any remaining residue just before the experiment. […] The plates were incubated at 37 °C for 4 h after the MTT was added. We used DMSO to remove crystals after the incubation period was completed. A hybrid multi-mode plate reader (BioTek, USA) with a microplate reader was used to measure absorbance at 570 nm. The percentage inhibition was calculated using eq 1: [drawing 1] 1 where ODtreated is the mean optical density (OD) of the treated cells and ODcontrol is the OD of the vehicle control cells (negative control).
(§2) With all of the experimental drugs, we conducted the MTT assay three times. Prism8 software (GraphPad) was used to determine the IC50 values of the various drugs, which were then expressed as a drug concentration (μM).
(Tetrazolium assays rely on reduction of a dye to a coloured formazan, in cell work by metabolically active cells.)

For experiment [2], the system named is human lung cancer cell (A549). The experiment is described as follows: MTT cytotoxicity assay, A549. It counts as cell-based. The note with it: for Selectivity Index A549: HFL-1 vs A549; for IC50: Homo sapiens, MTT, 24 h treatment, A549. Here is the method: as §1, §2
Experiment [3] relates to human cervical cancer cell (HeLa). The experiment is described as follows: MTT cytotoxicity assay, HeLa. It counts as cell-based. The note with it: for Selectivity Index HeLa: HFL-1 vs HeLa; for IC50: Homo sapiens, MTT, 24 h treatment, HeLa. As to the method:
as §1, §2

In another experiment the test system is A549 cells. The experiment is described as follows: Annexin V-FITC/PI flow cytometry apoptosis assay. The note with it: 4 μM, 24 h, control 11.41%. It counts as cell-based, human. As to the method:
We used flow cytometry analysis on A549 and HeLa cells for the quantitative apoptosis assay. As previously stated, cells were cultivated at 1.0 × 10^5 cells/ml and plated in 24-well culture plates (Corning) for 24 h. Cells were cultured for further 24 h after being treated with 4 μm of target drugs 3a and 3h. For analysis, the medium was discarded and cells were washed briefly in PBS, and then, the trypsinization protocol was carried out. Furthermore, cells were suspended in PBS and stained with annexin in V-FITC/PI according to the supplier technique (Sigma, USA, catalogue number: APOAF-20TST). After adding the reagents, the cells were allowed to incubate for 30 min at room temperature before being analyzed in PBS. The analysis was conducted on a BD FACS Accuri (BD Biosciences, USA), and the results were analyzed using FlowJo software (BD Biosciences, USA).[42]
On the technique in general: In flow cytometry, cells or beads pass a laser one at a time.

Experiment [4] in a line: DPPH radical scavenging antioxidant assay. The note with it: 1 h incubation in the dark. As to the method: The antioxidant activity of the 3a and 3h was determined using the DPPH ([…]) radical scavenging technique, as reported.[60],[73] In methanol, the DPPH radical has a purple color and has a strong absorption band with a maximum of 517 nm. Compound concentrations ranging from 1 to 4 μM were mixed with DPPH at a concentration of 10 μM. The mixtures were properly mixed and then incubated at room temperature for 1 h in the dark. The standard reference was ascorbic acid. As a control, DPPH in methanol was utilized. The % of DPPH radical scavenged was used to calculate the antioxidant activity of the compounds, which was calculated using eq 5: [drawing 5] 5 where Acontrol = DPPH absorbance; Asample = sample with DPPH absorbance.
(Loss of DPPH colour is used to gauge radical scavenging.)

Another experiment has as its system EB-DNA complex (Ct-DNA). The experiment is described as follows: Ethidium bromide dye displacement assay. It counts as binding. The note with it: quenching of EB-DNA fluorescence. An excerpt:
Competitive fluorescence binding experiments utilizing ethidium bromide, a standard intercalation indicator, were used to evaluate the degree of molecular binding interaction mechanism of an active drug with Ct-DNA. […] The observable changes in the EB–DNA adduct’s emission spectrum as a function of quencher addition are particularly valuable for researching compound–DNA interactions. Fluorescence measurements were done in Tris-buffer at a 515 nm excitation wavelength in the range of 530–700 nm. Slit widths for both emission and excitation were set at about 10 nm.[54],[69]

The subject of experiment [5] is Ct-DNA. Kind of experiment: Fluorescence emission titration. It counts as binding. The note with it: DNA 10 μM, compound 10–80 μM. As to the method:
Drug interactions with Ct-DNA have been studied using fluorescence assays. The experiments were achieved by varying drug concentration from 10 to 80 μM while keeping the concentration of DNA (10 μM) constant. Before making emission observation, the synthesized compound was incubated for 3 min with mixing DNA, after which emission titration was collected in Tris-buffer (pH 7.4) excitation at wavelength 260 nm, and the quenching results were analyzed using the Stern–Volmer equation (eq 3): [drawing 3] 3 Slit width has been kept constant at 10 nm during emission and excitation. The titration experiments were repeated three times (n = 3) to ensure consistent results.[50]−[52]

Experiment [6] deals with Ct-DNA. Kind of experiment: Cyclic voltammetry. It counts as binding. The note with it: Tris-buffer, 100 mV s^–1, DNA 10–40 μM. As to the method: Using this experiment, a drug–DNA binding interaction has also been investigated. The solution’s pH was maintained before analysis, and the entire analytical equipment was built at 25 °C with a constant potential of 100 mV s^–1 scan rate and a voltage range of −1 to +1 V. The spectra of a test compound (60 μL) were recorded using a screen-printed electrode (SPE). These experiments were carried out in a 1:1 ferri/ferrocyanide solution ratio. Various concentrations of Ct-DNA (Tris-buffer) were used to further evaluate test compounds 3a and 3h. The working electrode is made of the test compound, whereas the counter and reference electrodes are made of gold-coated copper. Binding constants were obtained using eq 4: [drawing 4] 4 where I0 and I are the peak currents of compound and compound–DNA complexes, respectively.[56]

Experiment [7] relates to breast cancer cell line (MCF-7). Further details: method as in PMID 20627597. The note with it: cited from earlier work.
The next experiment deals with HeLa. Further details: method as in PMID 27159418. The note with it: cited from earlier work.

For `CN(C)c1ccc(C2CC(c3ccc([N+](=O)[O-])cc3)=NN2C(N)=O)cc1` (stereo not drawn) [Compound 3i], the half-inhibitory concentration (IC50) in [1] stood at 165.84 ± 0.03 µM; in experiment [2], 174.84 ± 0.05 µM; in experiment [3], 80.7 ± 0.28 µM. The “Selectivity Index A549” value in [2] came to 0.9. Further, the “Selectivity Index HeLa” value in [3] is recorded as 2.0.
`Cc1ccc(C2=NN(C(N)=S)C(c3ccc(N(C)C)cc3)C2)cc1` (stereo not drawn) [Compound 3e]: the concentration for half-maximal inhibition (IC50) in experiment [1] was determined as 244.64 ± 0.05 µM; in experiment [2], 37.07 ± 0.14 µM; in experiment [3] it was 14.1 ± 0.4 µM. Besides, in [3], the “Selectivity Index HeLa” value turned out to be 17.4.
`CN(C)c1ccc(C2CC(c3ccc(Br)cc3)=NN2C(N)=S)cc1` (stereo not drawn) [Compound 3f] showed an IC50 in [1] of 194.33 ± 0.01 µM. Also, in experiment [2], the “Selectivity Index A549” value came out at 2.0 and half-maximal inhibition (IC50) was put at 94.18 ± 0.11 µM. In addition, in experiment [3], the “Selectivity Index HeLa” value is listed as 1.1 and the IC50 was found to be 168.8 ± 0.36 µM.
As for `CN(C)c1ccc(C2CC(c3ccc(Cl)cc3)=NN2C(N)=S)cc1` (stereo not drawn) [Compound 3a], half-maximal inhibition in experiment [1] (IC50) was put at 114.5 ± 0.01 µM. Also, in experiment [2], the “Selectivity Index A549” value is 8.4 and the concentration for half-maximal inhibition (IC50) was found to be 13.5 ± 0.17 µM. For the same compound, the “cell death (sum of Q1+Q2+Q3)” value in the experiment with A549 cells is 25.86%. The “IC50 DPPH radical scavenging” value in [4] was 0.132 ± 0.012 mg/L (≈ 0.368 µM). Further, the “Stern–Volmer constant KSV (EtBr displacement)” value with EB-DNA complex (Ct-DNA) is recorded as 1.84 × 10^4 M^–1. In the experiment on Ct-DNA [5], the “Stern–Volmer constant KSV (emission titration)” value is given as 5.80 × 10^3 M^–1. Besides, the “binding constant K (cyclic voltammetry)” value in the experiment with Ct-DNA [6] is 1.25 × 10^4. In experiment [3], the “Selectivity Index HeLa” value is 6.5 and the half-maximal inhibitory concentration (IC50) worked out at 17.52 ± 0.09 µM.
`CN(C)c1ccc(C2CC(c3cccc(Br)c3)=NN2C(N)=O)cc1` (stereo not drawn) [Compound 3h]: the midpoint of inhibition in experiment [1], the IC50, lay at 173 ± 10 µM. In experiment [2], the “Selectivity Index A549” value was 7.6 and the IC50 came to 22.5 ± 0.25 µM. Besides, in the experiment on A549 cells, the “cell death (sum of Q1+Q2+Q3)” value is 20.60%. The “IC50 DPPH radical scavenging” value in experiment [4] came out at 0.215 ± 0.025 mg/L (≈ 0.555 µM). In addition, in the experiment on EB-DNA complex (Ct-DNA), the “Stern–Volmer constant KSV (EtBr displacement)” value is given as 1.69 × 10^4 M^–1. Besides, the “Stern–Volmer constant KSV (emission titration)” value with Ct-DNA [5] is reported as 4.28 × 10^3 M^–1. Besides, the “binding constant K (cyclic voltammetry)” value in the experiment with Ct-DNA [6] is reported as 7.1 × 10^3. Also, in [3], the “Selectivity Index HeLa” value came out at 7.1 and the IC50 was determined as 24.1 ± 0.86 µM.
`CN(C)c1ccc(C2CC(c3cccc4ccccc34)=NN2C(N)=O)cc1` (stereo not drawn) [Compound 3k] gave an IC50 in [1] of 27.52 ± 0.06 µM. Besides, in experiment [2], the “Selectivity Index A549” value stood at 0.5 and the 50% inhibitory concentration (IC50) was 52.76 ± 0.28 µM. Further, in [3], the “Selectivity Index HeLa” value is 0.2 and 96.46 ± 0.25 µM corresponded to half-maximal inhibition (IC50).
In turn, `CN(C)c1ccc(C2CC(c3cccc(Br)c3)=NN2C(N)=S)cc1` (stereo not drawn) [Compound 3b] returned a 50% inhibitory concentration (IC50) in [1] of 227.98 ± 0.04 µM. In addition, in experiment [2], the “Selectivity Index A549” value amounted to 1.0 and the half-maximal inhibitory concentration (IC50) amounted to 222.3 ± 0.09 µM. Also, in experiment [3], the “Selectivity Index HeLa” value stood at 1.5 and inhibition was half-maximal at 150.1 ± 0.24 µM (IC50).
`COc1ccc(C2CC(c3ccc(C)c(C)c3)=NN2C(N)=S)cc1` (stereo not drawn) [Compound 1]: the half-maximal inhibitory concentration (IC50) in [7] is 0.08 µM.
`CN(C)c1ccc(C2CC(c3cccc([N+](=O)[O-])c3)=NN2C(N)=S)cc1` (stereo not drawn) [Compound 3c]: the IC50 came to 185.3 ± 0.21 µM in experiment [1], 163.9 ± 0.07 µM in experiment [2] and 123.6 ± 0.2 µM in experiment [3]. Further, the “Selectivity Index A549” value in experiment [2] stood at 1.1. In addition, in [3], the “Selectivity Index HeLa” value turned out to be 1.4.
On the same counts, the results for `CN(C)c1ccc(C2CC(c3cccc4ccccc34)=NN2C(N)=S)cc1` (stereo not drawn) [Compound 3j] are 166.75 ± 0.03 µM, 290.09 ± 0.14 µM, 194.2 ± 0.44 µM, 0.5 and 0.8.
In turn, `CN(C)c1ccc(C2CC(c3ccc(Cl)cc3)=NN2C(N)=O)cc1` (stereo not drawn) [Compound 3g] displayed an IC50 in experiment [1] of 26.94 ± 0.08 µM. In addition, in experiment [2], the “Selectivity Index A549” value is recorded as 0.4 and 59.74 ± 0.18 µM corresponded to half-maximal inhibition (IC50). Further, in [3], the “Selectivity Index HeLa” value came to 0.03 and the IC50 is 890.3 ± 0.22 µM.
Regarding `CN(C)c1ccc(C2CC(c3ccccc3Cl)=NN2C(N)=S)cc1` (stereo not drawn) [Compound 3d], the IC50 in [1] turned out to be 217.03 ± 0.02 µM. Further, in [2], the “Selectivity Index A549” value was 1.8 and the half-maximal inhibitory concentration (IC50) came out at 118.7 ± 0.08 µM. For the same compound, in experiment [3], the “Selectivity Index HeLa” value is listed as 14.46 and the IC50 came to 15 ± 0.46 µM.
`COc1cc(C2=NN(C(N)=O)C(c3cn(C)c4ccc(Br)cc34)C2)cc(OC)c1OC` (stereo not drawn) [Compound 2]: in the experiment with HeLa, the half-inhibitory concentration (IC50) was 0.21 µM.
For the compound `CCN(CC)c1ccc(C2CC(c3ccc(Br)cc3)=NN2C(N)=S)cc1` (stereo not drawn) [Compound 3l], 185.45 ± 0.14 µM corresponded to half-maximal inhibition in [1] (IC50). In addition, in experiment [2], the “Selectivity Index A549” value was 4.2 and it took 43.93 ± 0.13 µM to reach half-maximal inhibition (IC50). Moreover, in experiment [3], the “Selectivity Index HeLa” value is on record as 10.5 and the 50% inhibitory concentration (IC50) is 17.7 ± 0.42 µM.
For `COc1cccc(C2=NN(C(N)=O)C(c3cn(C)c4ccc(Br)cc34)C2)c1` (stereo not drawn) [Compound 3], the IC50 in the experiment on HeLa is 0.25 µM.

As a reminder, the IC50 is the midpoint of a concentration-inhibition curve.
